Here are results for nine compounds from paper PMC6128612, “Prodrugs for colon-restricted delivery: Design, synthesis, and in vivo evaluation of colony stimulating factor 1 receptor (CSF1R) inhibitors” (PLoS ONE, 2018).

Like-named read-outs stand apart in the source and are kept apart here.

The nature of data set [1]: Per rectal versus oral dosing of active parent: colon, liver, plasma exposure. It counts as in vivo. The settings on record: mouse. As for the experimental part:
Prior to dosing, mice were anaesthetized with Isoflurane and fecal material was removed from colons by irrigating with 0.5 mL of PBS using a syringe fitted with a 22 gauge flexible gavage needle. After a 20 min wake up period, mice were again anesthetized and drug was administered in a volume of 0.1–0.2 mL using a syringe fitted with a 22 gauge flexible gavage needle. Mice were then placed in the anesthesia chamber for 40 min in a supine position with hind end elevated to ensure drug remained in colon. After 40 min, mice were removed from the chamber and blood sampling over time (via tail nick) began.
(§1) Active Parent–Male CD1 mice (N = 3) received a single oral administration of compound 1 at 30 mg/kg prepared as a nanosuspension in 2% HPC-SL, 0.2% SDS in water and dosed at 10 ml/kg. Active Parent Prodrugs–Male CD1 mice or female C57BL/6 mice (N = 3) received a single oral adminstration of prodrug at 30 mg/kg active parent equivalent in either 10% Cremophor EL + 90% 1% Na-carboxymethylcellulose (NaCMC) at 10 ml/kg or as a nanosuspension in 2% HPC-SL, 0.2% SDS in water at 10 ml/kg.Blood samples were taken over 11 hours, and colon samples were taken at 3, 6 and/or 11 hours post dose. Mice received either Teklad Global Diet 2014 (Envigo Teklad, Madison, WI or LabDiet #5010 (LabDiet, St. Louis, MO).
(§2) Due to the inherent risk of fecal or PR-dosed material contaminating true levels of colon tissue exposure, careful flushing of colon tissue for drug analysis was required. Upon necropsy, a section of mouse colon was removed, and flushed with PBS until no visible fecal material was observed. Subsequently, a 1–2 cm section of colon was blotted dry, weighed and snap-frozen in liquid nitrogen.
(§3) Colon tissue (~50 mg) was diluted 10x in Veterinary Sterile Water for Irrigation (USP by Abbott), then 1.4 mm zirconium oxide beads were added and tissue was homogenized using an Omni Bead Ruptor 24 (Omni International, Kennesaw, GA). Aliquots of colon homogenate samples and a set of colon standards were pipetted in 96-well plates and subjected to protein precipitation extraction (with acetonitrile + internal standard) on a Microlab Star robot (Hamilton Robotics, Reno, NV). Plates were then mixed on a MixMate (Eppendorf, Hamburg, Germany) for 1 min at 1600 rpm and centrifuging for 5 min at 4000 rpm in 5810 R Centrifuge (Eppendorf, Hamburg, Germany). Supernatant was transferred into new plates and diluted with LC-MS/MS mobile phase.
(§4) Spiked standards were prepared in the appropriate matrices. All unknown samples and spiked standards were combined with acetonitrile containing internal standard, vortexed, and centrifuged to pellet the proteins. Supernatants were used for subsequent analysis by LC-MS/MS. The mobile phase consisted of acetonitrile with 0.1% formic acid, and water with 0.1% formic acid at a flow rate of 0.8 mL/min. Analytes were separated using reverse phase chromatography with a fast gradient on a 30 x 2.1 mm Fortis C18 Pace […] column, prior to analysis on a Sciex API5500™ mass spectrometer. Peak areas were determined using Sciex Analyst™ 1.6 software. Actual concentrations were calculated by regression analysis of the peak area ratio (parent / internal standard) of the spiked standards versus concentration.

Data set [2] has as its system Mouse bone marrow derived macrophages (BMDM). Nature of the data set: Mouse macrophage differentiation assay (CSF-induced). It counts as cell-based. The method, then: Mouse bone marrow derived macrophages (BMDM) were isolated as previously described[53] from C57BL/6 female mice. The isolated cells were washed using standard growth medium (RPMI (Gibco cat# 11875–093) with 2 mM L-glutamine (Gibco cat# 25033), 1% Pen/Strep (Gibco cat# 15140), 10% heat inactivated fetal bovine serum (HI-FBS, Gibco cat# 10438), and 0.1% beta-mercaptoethanol (BME, Gibco cat# 21985–023)), and filtered through a […] cell strainer (Falcon cat# 352360). Cells were counted, re-suspended in growth medium, and plated at 1x10^5 viable cells per well in a 96 well plate (Corning cat# 3603). Inhibitors were added at various concentrations to the cells, and incubated at 37°C/5% CO2 for 30 minutes. Recombinant mouse macrophage colony stimulating factor (M-CSF, R&D cat# 416-ML-010) was added to the plates at a final concentration of […]. Plates were transferred to a 37°C/5% CO2 incubator for 5 days. On the fifth day, supernatant was removed from each well and Cell Titer Glo (Promega cat#G7571) was added. Plates were covered from the light and incubated at room temperature for 10 minutes before reading the luminescence on an EnVision plate reader (PerkinElmer).

The target of data set [3] is CSF1R (Homo sapiens, UniProt P07333). Nature of the data set: CSF1R enzyme activity (TR-FRET binding displacement, kinase panel). As for the experimental part: TR-FRET-based binding displacement studies using active site probes were used to assess kinome selectivity of inhibitor molecules.[54] The concentrations of components for each purified kinase were based on optimized conditions with ranges as follows: kinases (1.25–12.5 nM), Oregon Green-labeled fluorescent probes (2x KD of probe to the particular kinase; range of 1–200 nM; in-house), terbium anti-His or anti-GST antibody (0.5–2 nM). The reaction buffer was diluted to 1x using ddH2O and contained 1 mM DTT.
Compounds were typically tested from 0.0001 to 10 μM in 10x dilutions. Reactions were carried out in a 20 μL volume in 384-well plates by combining kinase, probe, antibody, and test compound and allowing the reaction to come to equilibrium (incubation of 2 h). TR-FRET was then measured on a PerkinElmer Envision plate reader (excitation at 340 nm; emission at 520 and 495 nm). Competition by the test compound versus the fluorescent probe for the ATP binding site of the kinase was quantified by calculating the IC50 value based on a four-parameter logistic curve fit.
(TR-FRET usually uses a lanthanide donor and a delayed reading to cut background.)

The nature of data set [4]: PAMPA permeability. Type of data set: in vitro ADME.
Data set [5] is described as follows: Pharmacokinetic studies of active parent in mice. It counts as in vivo. To be noted: mouse; for clearance: male, CD1, blood, read-out: Blood Clearance (total clearance) (converted); for clearance / Blood Clearance (unbound clearance, CLb/fub): 1 mg/kg IV, N = 2–3; for FaFg: 1 mg/kg, F/Fh (compound 6) or AUCoral/AUCip. The method, then: Male CD1 mice on Teklad Global Diet 2014 (Envigo Teklad, Madison, WI) (n = 2–3 per study) received a single IV, oral or intraperitoneal (IP) administration of compounds 1, 4, 5 or 6 at 1 mg/kg in 2:5:20:73 (v/v) DMSO:Tween 80:PEG-400:D5W dosed at 10 ml/kg. Serial blood samples were taken over 24h and frozen at −20°C until analysis. Pharmacokinetic parameters after IP or PO dosing were calculated by noncompartmental methods, while pharmacokinetic parameters after IV dosing were calculated by compartmental methods using WinNonlin (version 5.2, Certara USA Inc., St. Louis, MO). Mean parameters were determined from 1–3 separate studies. FaFg was determined as F/Fh (compound 6) or as the ratio of AUC after an oral dose to that after an IP dose (AUCoral/AUCip).

Data set [6] can be described thus: Oral administration of prodrugs to mice: colon, plasma, feces exposure. Type of data set: in vivo. The settings on record: mouse; for Prodrug levels in plasma after oral dosing / Prodrug plasma concentration, fold lower than active parent 1: dose equal to 30 mg/kg of 1; for Plasma versus colon levels of active parent 1 after oral prodrug: dose equal to 30 mg/kg of 1, 3 and 11 h. The method, then:
as §1, §2, §3, §4

Data set [7] is described as follows: Plasma stability in vitro. Type of data set: in vitro ADME, mouse.
[8] abbreviates: CSF-induced mouse macrophage differentiation, mean from n ≥3 experiments, read-out: Mouse Mac EC50.
Where [9] appears, read: Mus musculus, adjusted for binding in 10% FBS, read-out: Cellular EC50 corrected for binding in 10% FBS.

Chain of CSF1R (P07333 20-972): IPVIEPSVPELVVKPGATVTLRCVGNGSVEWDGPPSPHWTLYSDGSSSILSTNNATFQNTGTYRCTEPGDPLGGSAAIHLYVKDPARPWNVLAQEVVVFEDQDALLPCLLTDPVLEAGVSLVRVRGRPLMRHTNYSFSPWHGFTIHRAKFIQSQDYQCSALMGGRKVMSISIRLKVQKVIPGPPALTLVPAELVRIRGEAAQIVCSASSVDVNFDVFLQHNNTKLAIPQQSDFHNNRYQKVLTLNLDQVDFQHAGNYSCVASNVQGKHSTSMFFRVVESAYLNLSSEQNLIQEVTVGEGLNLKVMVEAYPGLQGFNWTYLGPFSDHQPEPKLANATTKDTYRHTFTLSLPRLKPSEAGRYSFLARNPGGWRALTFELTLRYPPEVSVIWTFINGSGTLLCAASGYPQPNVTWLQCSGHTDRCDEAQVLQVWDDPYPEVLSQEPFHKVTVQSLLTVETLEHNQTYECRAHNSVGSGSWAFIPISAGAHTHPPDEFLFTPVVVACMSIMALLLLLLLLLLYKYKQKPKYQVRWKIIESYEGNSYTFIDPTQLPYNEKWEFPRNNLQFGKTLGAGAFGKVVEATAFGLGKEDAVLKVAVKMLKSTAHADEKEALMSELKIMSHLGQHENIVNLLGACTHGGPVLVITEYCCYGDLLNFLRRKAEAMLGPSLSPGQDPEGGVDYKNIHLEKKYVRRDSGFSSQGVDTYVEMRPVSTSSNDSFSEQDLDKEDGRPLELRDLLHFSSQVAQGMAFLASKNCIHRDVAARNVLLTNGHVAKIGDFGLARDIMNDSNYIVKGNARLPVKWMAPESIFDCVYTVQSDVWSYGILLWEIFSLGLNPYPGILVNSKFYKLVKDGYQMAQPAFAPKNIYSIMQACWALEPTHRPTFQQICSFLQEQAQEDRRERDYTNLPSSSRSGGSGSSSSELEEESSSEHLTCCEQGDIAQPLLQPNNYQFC

As a reminder, the EC50 is the concentration needed to bring the measured effect to its halfway point. For orientation: IC50 means the concentration that inhibits the measured activity by half. A higher IC50 goes with lower potency. Usually Papp stands for a coefficient for how fast a substance crosses the barrier. Read a low Papp as slow passage. As a reminder, the clearance is the rate of elimination divided by the concentration. On to `O[C@H]1CC[C@H](n2cc(Nc3nc(C4CCCCC4)cn4ncnc34)cn2)CC1` [Compound 1, (1r,4r)-4-(4-((6-Cyclohexyl-[1,2,4]triazolo[1,5-a]pyrazin-8-yl)amino)-1H-pyrazol-1-yl)cyclohexanol], for which, in data set [1] (colon and plasma, other: per rectal (PR), PR 30 mg/kg, 1 h, read-out: colon:plasma ratio (unbound)), the Kp at 1 h was 22. For the same compound, the Kp at 3 h in data set [1] (male, CD1, colon and plasma, PO 30 mg/kg, 3 h, read-out: colon:plasma ratio (unbound)) is 0.5. In data set [1] (PO 30 mg/kg, 3 h), the “Mean colon unbound Cmax” value stood at 9 ng/g and the “colon:liver ratio (unbound)” value is 0.34 x. Moreover, in data set [1] (PR 30 mg/kg, 1 h), the “Mean colon unbound Cmax” value stood at 67 ng/g and the “colon:liver ratio (unbound)” value amounted to 7 x. Besides, the “Compound in the colon at the terminal time point” value in data set [1] (PR 30 mg/kg, 11 h) is “Lack of compound detection in the colon”. Also, in data set [1] (PR 30 mg/kg, unbound), the “1 h colon exposure versus cellular EC50” value is “exceeded the cellular EC50” and the “1 h plasma exposure exceeding cellular EC50” value is “did not”. Further, the concentration for a half-maximal effect (EC50) in data set [2] (setting [8]) was determined as 113 nM. In addition, the half-maximal effective concentration (EC50) in data set [2] (setting [9]) came to 0.022 µg/mL. This compound showed a half-maximal inhibitory concentration (IC50) in data set [3] of less than 10 nM. The compound further returned an apparent permeability (Papp) in data set [4] of 15.6 ×10⁻⁶ cm/s. In addition, in data set [5], the clearance is 75 mL/min/kg; the “Blood Clearance (unbound clearance, CLb/fub)” value came out at 2500 mL/min/kg; the FaFg amounted to 43%.
With `OCCn1cc(Nc2nc(C3CCCCC3)cn3ncnc23)cn1` [Compound 4, 2-(4-((6-Cyclohexyl-[1,2,4]triazolo[1,5-a]pyrazin-8-yl)amino)-1H-pyrazol-1-yl)ethanol], the EC50 in data set [2] (setting [8]) came to 245 nM. Also, in data set [2] (setting [9]), the EC50 was 0.019 µg/mL. Also, in data set [3], the IC50 is less than 10 nM. For the same compound, in data set [4], the Papp was found to be 14.1 ×10⁻⁶ cm/s. Besides, in data set [5], the clearance was 108 mL/min/kg; the “Blood Clearance (unbound clearance, CLb/fub)” value is 1700 mL/min/kg; the FaFg came out at 18%.
Consider `CC(C)(O)CCn1cc(Nc2nc(C3CCCCC3)cn3ncnc23)cn1` [Compound 5, 4-(4-((6-Cyclohexyl-[1,2,4]triazolo[1,5-a]pyrazin-8-yl)amino)-1H-pyrazol-1-yl)-2-methylbutan-2-ol], for which the half-maximal effective concentration (EC50) in data set [2] (setting [8]) was 104 nM. For the same compound, the concentration for a half-maximal effect (EC50) in data set [2] (setting [9]) worked out at 0.021 µg/mL. The same compound returned an IC50 in data set [3] of less than 10 nM. The compound further came in with a Papp in data set [4] of 8.7 ×10⁻⁶ cm/s. Further, in data set [5], the clearance is 80 mL/min/kg; the “Blood Clearance (unbound clearance, CLb/fub)” value turned out to be 3280 mL/min/kg; the FaFg is reported as 32%.
In the case of `O=C(O)[C@H]1CC[C@H](n2cc(Nc3nc(C4CCCCC4)cn4ncnc34)cn2)CC1` [Compound 6], in data set [2] (setting [8]), the EC50 amounted to 196 nM. Also, in data set [2] (setting [9]), the concentration giving a half-maximal response (EC50) was 0.042 µg/mL. This compound yielded a half-maximal inhibitory concentration (IC50) in data set [3] of less than 10 nM. Besides, in data set [4], the apparent permeability (Papp) amounted to 14.6 ×10⁻⁶ cm/s. In data set [5], the clearance is 16.7 mL/min/kg; the “Blood Clearance (unbound clearance, CLb/fub)” value amounted to 317 mL/min/kg; the FaFg turned out to be 35%.
With `CN(C)CC(=O)OC1CCC(n2cc(Nc3nc(C4CCCCC4)cn4ncnc34)cn2)CC1` (stereo not drawn) [Compound 7, (1r,4r)-4-(4-((6-Cyclohexyl-[1,2,4]triazolo[1,5-a]pyrazin-8-yl)amino)-1H-pyrazol-1-yl)cyclohexyl 2-(dimethylamino)acetate], in data set [6], the “Prodrug levels in plasma after oral dosing” value (shortened to “Prodrug levels in plasma”) was “no prodrug levels were measurable in plasma” and the “Plasma versus colon levels of active parent 1 after oral prodrug” value is “significantly higher plasma versus colon drug levels”. The Stability in plasma result in data set [7] was “not stable in plasma”.
Turning to `CC(C)C(N)C(=O)OC1CCC(n2cc(Nc3nc(C4CCCCC4)cn4ncnc34)cn2)CC1` [Compound 8, (R)-(1r,4r)-4-(4-((6-Cyclohexyl-[1,2,4]triazolo[1,5-a]pyrazin-8-yl)amino)-1H-pyrazol-1-yl)cyclohexyl 2-amino-3-methylbutanoate], in data set [6], the “Prodrug plasma concentration, fold lower than active parent 1” value is ~ 10 x and the “Plasma versus colon levels of active parent 1 after oral prodrug” value is “significantly higher plasma versus colon drug levels”.
Consider `OCC1OC(OC2CCC(n3cc(Nc4nc(C5CCCCC5)cn5ncnc45)cn3)CC2)C(O)C(O)C1O` [Compound 9, (2R,3R,4S,5S,6R)-2-(((1r,4r)-4-(4-((6-Cyclohexyl-[1,2,4]triazolo[1,5-a]pyrazin-8-yl)amino)-1H-pyrazol-1-yl)cyclohexyl)oxy)-6-(hydroxymethyl)tetrahydro-2H-pyran-3,4,5-triol], for which, in data set [6], the “Prodrug plasma concentration, fold lower than active parent 1” value is recorded as ~ 100 x.
With `OCC1OC(OC2CCC(n3cc(Nc4nc(C5CCCCC5)cn5ncnc45)cn3)CC2)C(O)C(O)C1O` [Compound 10, (2S,3R,4S,5S,6R)-2-(((1r,4s)-4-(4-((6-cyclohexyl-[1,2,4]triazolo[1,5-a]pyrazin-8-yl)amino)-1H-pyrazol-1-yl)cyclohexyl)oxy)-6-(hydroxymethyl)tetrahydro-2H-pyran-3,4,5-triol], the “Prodrug levels in plasma” value in data set [6] was “no measureable plasma levels”.
With `O=C(O)C1OC(OC2CCC(n3cc(Nc4nc(C5CCCCC5)cn5ncnc45)cn3)CC2)C(O)C(O)C1O` [Compound 11, (2S,3S,4S,5R,6R)-6-(((1r,4r)-4-(4-((6-Cyclohexyl-[1,2,4]triazolo[1,5-a]pyrazin-8-yl)amino)-1H-pyrazol-1-yl)cyclohexyl)oxy)-3,4,5-trihydroxytetrahydro-2H-pyran-2-carboxylic acid], in data set [6], the “Prodrug levels in plasma” value is “no measureable plasma levels”.
